Laboratory results as given in patent US7728131B2, “Amide derivative and medicine” (Nippon Shinyaku Co., Ltd., priority 2003, dated 2010).

Columns and labels:
[1] = tested on: U937 cells; test: Cell growth inhibitory effect, U937 cells (Cell counting Kit-8, 72 hours); format: cell-based; details: Homo sapiens, U-937, BCR-ABL negative U937 cells, WST-8 absorbance, continuation of Table 3, read-out: U937 cells (IC50 value: nμM)
Method: The plate was incubated in a CO2 incubator overnight. […] The plate was incubated in a CO2 incubator. After 72 hours, 20 μl

[2] = tested on: K562 cells; test: Cell growth inhibitory effect, K562 cells (Cell counting Kit-8, 72 hours); details: for IC50: Homo sapiens, K562, 72 h, read-out: K562 cells (IC50 value: μM); for Ratio (U937 cells/K562 cells): IC50 U937 cells / IC50 K562 cells;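 on all read-outs here: Read-out is formazan absorbance at 450 nm from WST-8 reduction after a 3 h color reaction, with K562 and U937 cells grown in 96-well plates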
Method: of Cell counting Kit-8 (5 mmol/l WST-8, 0.2 mmol/1 1-Methoxy PMS, 150 mmol/l NaCl) (manufactured by Dojindo) was added to each well. After reaction for color development in a CO2 incubator for 3 hours, an absorbance of formazan, generated by reduction of WST-8 was determined at 450 nm using Multi-level counter ARVOsx (manufactured by Wallac).
K562 cells and U937 cells (purchased from American Type Culture Collection) were cultured in a RPMI-1640 medium (manufactured by Sigma) containing 10% (v/v) fetal calf serum (FCS) (manufactures by Sigma) (RPMI-1640/FCS). K562 cells and U937 cells were seeded at a density of 5000 cells/100 μl/well and 4000 cells/100 μl/well in each of 96-hole-plate (manufactured by costar), respectively. The plate was incubated in a CO2 incubator overnight. […] The resulting solution was diluted 500 times in a RPMI-1640/FCS medium and then 100 μl of the diluent was added in a well. The plate was incubated in a CO2 incubator. After 72 hours, 20 μl

Row | SMILES | IC50 [1] [nM] | melting point | IC50 [2] [µM] | Ratio (U937 cells/K562 cells) [2]
1 | Cc1ccc(NC(=O)c2ccc(CN3C[C@@H](C)[C@H](N(C)C)C3)c(C(F)(F)F)c2)cc1Nc1nccc(-c2cncnc2)n1.Cl [Example 67, (−)-4-[(3S,4R)-3-(dimethylamino)-4-methylpyrrolidin-1-ylmethyl]-3-trifluoromethyl-N-{4-methyl-3-[4-(5-pyrimidinyl)pyrimidin-2-ylamino]phenyl}benzamide hydrochloride] | 6500 | 164 to 174 °C (dec.) | 0.0077 | 844
2 | Cc1ccc(NC(=O)c2ccc(CN3CCN(C)[C@@H](C)C3)c(C(F)(F)F)c2)cc1Nc1nccc(-c2cncnc2)n1.Cl [Example 69, (−)-4-((S)-3,4-dimethylpiperazin-1-ylmethyl)-3-trifluoromethyl-N-{4-methyl-3-[4-(5-pyrimidinyl)pyrimidin-2-ylamino]phenyl}benzamide hydrochloride] | 10000 | 187 to 193 °C | 0.0022 | 4545
3 | Cc1ccc(NC(=O)c2ccc(CN3CCN(C)[C@H](C)C3)c(C(F)(F)F)c2)cc1Nc1nccc(-c2cncnc2)n1.Cl [Example 71, (+)-4-((R)-3,4-dimethylpiperazin-1-ylmethyl)-3-trifluoromethyl-N-{4-methyl-3-[4-(5-pyrimidinyl)pyrimidin-2-ylamino]phenyl}benzamide hydrochloride] | 6700 | 186 to 194 °C | 0.0061 | 1098
4 | Cc1ccc(NC(=O)c2ccc(CN3CCN(Cc4oc(=O)oc4C)CC3)c(C(F)(F)F)c2)cc1Nc1nccc(-c2cncnc2)n1.Cl [Example 73, 4-{4-[(5-methyl-2-oxo-1,3-dioxol-4-yl)methyl]piperazin-1-ylmethyl}-3-trifluoromethyl-N-{4-methyl-3-[4-(5-pyrimidinyl)pyrimidin-2-ylamino]phenyl}benzamide hydrochloride] | 9700 | 218 to 226 °C (dec.) | 0.0023 | 4217
5 | Cc1ccc(NC(=O)c2ccc(CN3CCN(C)CC3)c(C(F)(F)F)c2)cc1Nc1nc(-c2ccncc2)cs1.Cl [Example 75, 4-(4-methylpipiperazin-1-ylmethyl)-3-trifluoromethyl-N-{4-methyl-3-[4-(4-pyridyl)thiazol-2-ylamino]phenyl}benzamide hydrochloride] | 2700 | 186 to 188 °C | 0.0059 | 458
6 | Cc1ccc(NC(=O)c2ccc(CN3CC(N(C)C)C3)c(C(F)(F)F)c2)cc1Nc1nccc(-c2cncnc2)n1.Cl [Example 77, 4-[3-(dimethylamino)azetidin-1-ylmethyl]-3-trifluoromethyl-N-{4-methyl-3-[4-(5-pyrimidinyl)pyrimidin-2-ylamino]phenyl}benzamide hydrochloride] | > 100000 | 159 to 167 °C (dec.) | 0.018 | >13699
7 | Cc1ccc(NC(=O)c2ccc(CN3CC[C@H](CN(C)C)C3)c(C(F)(F)F)c2)cc1Nc1nccc(-c2cncnc2)n1.Cl [Example 79, 4-[(R)-3-(dimethylaminomethyl)pyrrolidin-1-ylmethyl]-3-trifluoromethyl-N-{4-methyl-3-[4-(5-pyrimidinyl)pyrimidin-2-ylamino]phenyl}benzamide hydrochloride] | 20000 | 114 to 122 °C (dec.) | 0.0059 | 4348
8 | Cc1ccc(NC(=O)c2ccc(CN3CC[C@@H](CN(C)C)C3)c(C(F)(F)F)c2)cc1Nc1nccc(-c2cncnc2)n1.Cl [Example 81, 4-[(S)-3-(dimethylaminomethyl)pyrrolidin-1-ylmethyl]-3-trifluoromethyl-N-{4-methyl-3-[4-(5-pyrimidinyl)pyrimidin-2-ylamino]phenyl}benzamide hydrochloride] | > 100000 | 114 to 122 °C (dec.) | 0.0047 | >27778
